This is an account of results in patent US6288110A, “Pharmaceutical compositions comprising disulfiram” (Yeda Research and Development Co Ltd., priority 1998, dated 2001).

For one data set, the system named is BCE cells. Description: Apoptosis by FACS (DNA content) in BCE cells. Type of data set: cell-based, bovine. The conditions noted are these: 0.5-5 μM, 20 hours. The method, then: Cells were cultured in plastic tissue culture dishes for 48 hours in presence of growth media as described above, until reaching 40-50% confluency. Disulfiram was then added to the cells for 20 hours. The cells were removed from the plates by EDTA-trypsin and fixed in ice-cold 70% ethanol (BioLab, Israel) in -20° C. for 2 hr to overnight. The fixed cells (2-5×10^6) were washed once with HEPES-buffered saline (HBSS) and incubated with 0.5 mg/ml RNAseH (Boehringer Mannheim). Afterwards the cells were resuspended in HBSS containing 50 μg/ml propidium iodide (Sigma) and subsequently analyzed on a FACSort flow cytometer (Beckton Dickinson Inc.) using Lysis II software. For the analysis, 10,000 cells were examined from each sample. The percentage of the hypodiploid cells was measured (Darzynkiewicz, 1992; Afanasyev, 1993). The cell cycle histogram was divided into four regions according to the cell cycle phases: Ap, apoptotic cells; G1, diploid cells; S, intermediate cells; and G2 /M, tetraploid cells.
Capillary endothelial cells were grown during 48 hours to 40-50% confluency and disulfiram was then added to the cells for 20 hours as described in section (g) of "Materials and Methods" above. […] The abundance of apoptotic cells was dose-dependent.
(In general: In flow cytometry, cells or beads pass a laser one at a time.)

A further data set deals with C6 rat glioma tumor. Description: Growth of C6 glioma tumors in nude mice. The format is in vivo, CD1 nude male mice; C6 rat glioma cells. The note with it: 30 days; for Tumor weight / % inhibition (tumor growth): per os 3 times per week; for Tumor weight: n=8, mean ± SEM, control 1.37 ± 0.21. The method, then:
(§1) C6 rat glioma cells (10^6) were injected subcutaneously into the back of the neck of CD1 nude male mice. After 3 days, 1 ml of aqueous solutions with or without 0.1-0.5 mM disulfiram (25-120 μg) was introduced per os to the mice using a feeding needle. Mice were orally fed three times per week. Tumors were removed 30 days following C6 cells injection, weighed, fixed in buffered formalin and histological sections were prepared. Each experimental group included 8 animals, and experiments were repeated twice.
Tumors from mice fed systemically 3 times a week with disulfiram were weighed 30 days following administration of C6 rat glioma cells to CD1 nude mice. […] Experiments were repeated twice (n=8).

The subject of data set [1] is Lewis lung carcinoma (D122) metastasis in the lungs. Description: Lewis lung carcinoma metastasis, footpad model. Type of data set: in vivo, C57/BL mice. The text has this:
The Lewis lung carcinoma (3LL), which originated spontaneously in a C57/BL/6J (H-2^b) mouse, is a malignant tumor that produces spontaneous lung metastases. The metastatic clone D122, kindly provided by Prof. Lea Eisenbach (Weizmann Institute of Science, Rehovot, Israel), was used herein for tissue culture and for in vivo experiments. The cell cultures were maintained in DMEM supplemented with 10% heat-inactivated FCS, glutamine, antibiotics, sodium pyruvate and nonessential amino acids.
Two metastasis models were used: 1. The footpad model. 2. The i.v. model. The assay of tumor development in the footpad model and evaluation of lung metastases was done as previously described (Eisenbach, 1983). Briefly, eight mice in each experimental group were inoculated with 2×10^5 D122 cells in 0.05 ml PBS in the right hind footpad. Three days following tumor cells injection, mice were treated per os by disulfiram or saline 3 times per week. The tumors became palpable within 11-19 days. Local tumor growth was determined by measuring the footpad diameter with a calipers. At 26-40 days following inoculation, when local tumor reached a diameter of 6-7 mm, mice were anesthetized with a single dose of 75 mg/kg ketamine+3 mg/kg xylazine (i.p.) and the tumor-bearing leg was removed by amputation above the knee joint. To measure progress of metatases the mice were killed 24 days following amputation by injecting 20 mg/mouse xylazine i.p. and lungs were weighed.
Twenty-four days following the removal of the tumor-bearing leg, lungs were weighed.

The subject of data set [2] is kidney, liver, stomach, lungs and spleen. Description: Pathological and histological examination of tissues of treated animals. The format is in vivo, mice. The method, then: as §1
Since disulfiram inhibits angiogenesis both in vivo in mice and in vitro in C6 glioma cells, it can be assumed that tumor growth inhibition observed for disulfiram is the result of its dual action, one on the neovascularization of the tumor and one on the C6 glioma cells. […] Blood vessels examined in these tissues were also not affected.

Another data set concerns aldolases. The conditions noted are these: cited from earlier work.
Data set [3] relates to Sarcoma 180, EL-4 leukemia or L1210 murine leukemia. The note with it: cited from earlier work.

Entries after “also recorded” stand apart in the source; their conditions may differ.

For the molecule `CCN(CC)C(=S)SSC(=S)N(CC)CC` [disulfiram, Bis(diethylthiocarbamoyl) disulfide], in the data set on BCE cells, the “apoptosis by FACS analysis of DNA content” value was “induced in a dose-dependent manner a sub-diploid apoptotic population; also recorded: appearance of a sub-diploid apoptotic population of cells” and the “dose dependence of abundance of apoptotic cells (FACS)” value is listed as “dose-dependent”. For the same molecule, the Tumor weight in the data set with C6 rat glioma tumor (25 μg, p = 0.003) stood at 0.59 ± 0.08 g. The “% inhibition (tumor growth)” value with C6 rat glioma tumor (25 μg/mouse, p = 0.003) was found to be 57%. The Tumor weight in the data set on C6 rat glioma tumor (120 μg, p < 0.05) was determined as 0.84 ± 0.18 g. For the same molecule, the “% inhibition (tumor growth)” value with C6 rat glioma tumor (120 μg/mouse, p < 0.05) turned out to be 38%. Further, in the data set with C6 rat glioma tumor (fed 3 times a week, n=8), the “tumor size compared with water-fed control (in words)” value is reported as “significantly smaller”. Also, in data set [1] (30 μg, 3 times a week, 24 days, n=6, p=0.005), the “metastasis on the lungs compared with water-fed control (in words)” value is recorded as “significantly smaller”. The “lowering of the metastatic load in the lungs” value in data set [1] (30 μg/mouse, 24 days following removal of tumor-bearing leg) is about 10 fold. In addition, the “decrease in the metastatic load in the lungs (in words)” value in data set [1] (120 μg/mouse (not shown)) is reported as “only slight decrease”. Besides, the “deaths of disulfiram-treated mice” value in data set [1] (by 24th day following leg removal, control 50% died) was “no disulfiram-treated mice died”. For the same molecule, the “mice with no metastases at all” value in data set [1] (disulfiram-treated group) was “two out of six”. For the same molecule, in data set [2], the “effect on blood vessels in tissues” value was “not affected” and the “pathological effect on tissues” value was “no effect on these tissues”. In addition, the inhibition of aldolases entry in the data set with aldolases is reported as “inhibit”. The “effect on anti-tumor activity of ifosfamide and cyclophosphamide” value in data set [3] is listed as “without compromising their anti-tumor activity”.
